Measurements published in patent US20210338699A1 (priority 2018, published 2021).
Like-named read-outs stand apart in the source and are kept apart here.

Assays:
[1] = test system: blood vessel permeability; settings: mouse, in vivo; cited from earlier work
[2] = test system: cancer patients including AML patients; settings: within 9 years of DOX treatment; cited from earlier work
AML mice = test system: AML mice
Description: Three different sources of donor cells will be utilized: 1) WT LSK cells; 2) Tet2^−/−FLT3^ITD/+ LSK cells; and 3) Dnmt3a^−/−FLT3^ITD/+ LSK cells. Lethally irradiated CD45.1^+ (BoyJ) recipient mice of the above described 5 genotypes will be transplanted with CD45.2^+WT, Tet2^−/−FLT3^ITD/+ or Dnmt3a^−/−FLT3^TID/+ leukemic cells along with CD45.1^+ normal cells in 1:1 ratio pooled from 2-3 mice of either gender at 4 months of age. 2 months posttransplant, the development of AML in these mice will be assessed by analysing peripheral blood. Mice will be randomly assigned into two groups: 1) vehicle; and 2) intraperitoneal injection (IP) of DOX 8 mg/kg/week for 3 weeks. This treatment is based on the previously described approach. […] Alternatively, mice will be subjected to 5 IP injections of DOX (5 mg/Kg) with one-week intervals for a cumulative dose of 25 mg/kg over a period of 5 weeks. […] Relapse of these mice will be monitored closely and DOX will be re-administered and then be compared for CTX.

WT and ROCK1^−/− mice = assay: Serial doxorubicin administration, DOX-induced CTX in WT and ROCK1−/− mice
Protocol: FIG. 1A. Schematic diagram representing serial doxorubicin administration protocol. WT and ROCK1^−/− mice received three serial injections weekly of normal saline (NS) or doxorubicin (DOX) (8 mg/kg). […]
The generation of ROCK1 deficient mice have been previously reported. […] To assess if a deficiency of ROCK1 protects the mice from DOX induced CTX, control (WT) and ROCK1^−/− mice were injected with 8 mg/kg of DOX or normal saline (NS) once weekly for 3 consecutive weeks, for a cumulative dose of 24 mg/kg (FIG. 1A). This treatment is based on the previously described approach, which causes progressive cardiac dysfunction within three weeks after the initial injection, a scenario that mimics early-onset of DOX-induced CTX in humans.
To elucidate the role of ROCK1 in DOX induced CTX, ROCK1^−/− mice were treated with DOX in parallel to the WT mice.
During autophagy, the cytosolic form of microtubule-associated protein 1 light chain 3 (LC3-I) is conjugated to phosphatidylethanolamine to form LC3-II, which is recruited to autophagosomal membranes.

[3] = test system: MHC-Cre/ROCK1^fl/fl and ROCK1^fl/fl mice; assay: DOX-induced CTX in cardiomyocyte-specific ROCK1 knockout mice; type: in vivo; settings: three weekly injections 8 mg/kg, day 21
Protocol: FIG. 7A. Graph illustrating the percent fractional shortening (FS) of cardiomyocyte-specific ROCK1 knockout mice (MHC-Cre/ROCKfl/fl) and ROCK1fl/fl mice (8-9 weeks old) after receiving three serial injections weekly of NS or DOX (8 mg/kg). Cardiac function was measured by echocardiography analysis on day 21 after the initial injection.
FIG. 7B. Graph illustrating total TUNEL positive nuclei per 10^5 total nuclei in ventricular myocardium from MHC-Cre/ROCK^fl/fl and ROCK1^fl/fl mice hearts on day 21. N=4-6 in each group.
FIG. 7C. Representative heart sections stained with picrosirius red/Fast green illustrating the collagen deposition in ventricular myocardium of MHC-Cre/ROCK^fl/fl and ROCK1^fl/fl mice hearts on day 21. N=4-6 in each group.
To determine if ROCK1 in cardiomyocytes has a role in DOX-induced CTX, cardiomyocyte-specific ROCK1 knockout mice were generated. In myosin heavy chain (MHC)-Cre/ROCK1^fl/fl mice, the ROCK1 protein is truncated only in cardiomyocytes from residue 137 to the end of the protein (FIGS. 6A, 6B). Similar to ROCK1^−/− mice in which the ROCK1 protein is also truncated from residue 180 to the end of the protein in all cells, the conditional targeting approach results in the removal of a large portion of the kinase domain and amino acids from the coiled-coil and the PH domains. […]

[4] = test system: fibroblasts from WT and ROCK1^−/− mice; assay: Ponatinib treatment of WT and ROCK1−/− fibroblasts; type: cell-based
[5] = test system: cells expressing FLT3-ITD (FLT3N51); assay: Proliferation by [3H] thymidine incorporation, FLT3-ITD cells; type: cell-based; settings: absence of growth factors, 48 hours
Protocol: (§1) FIG. 9A. […] After 48 hours, proliferation was evaluated by [^3H] thymidine incorporation.
(§2) In order to illustrate the imatinib resistance, very high dose of imatinib were used in these cells.

cells expressing BCR-ABL = assay: Proliferation by [3H] thymidine incorporation, BCR-ABL cells; type: cell-based; settings: absence of growth factors, 48 hours
Protocol: as §1
FIG. 12A. Graph illustrating the effect of ROCK inhibitor (H-1152) alone or in combination with imatinib on proliferation of myeloid cells expressing BCR-ABL.
as §2
Referring now to FIG. 11, primary CML patient derived cells were examined and a human cell line bearing BCR-ABL (K562) was used as a positive control.

ROCK = settings: cited from earlier work
leukemic mice = assay: Survival of leukemic mice treated with ROCK inhibitors; type: in vivo
Description: Increased ROCK activity is associated with cardiovascular disease (CVD).

Cc1nc(Nc2ncc(C(=O)Nc3c(C)cccc3Cl)s2)cc(N2CCN(CCO)CC2)n1 [dasatinib]
amount of Evans Blue in the small intestine [1]: significantly increases

COc1cccc2c1C(=O)c1c(O)c3c(c(O)c1C2=O)C[C@@](O)(C(=O)CO)C[C@@H]3O[C@H]1C[C@H](N)[C@H](O)[C@H](C)O1 [DOX, doxorubicin]
patients with clinical or sub-clinical manifestation of heart failure [2]: 6-18% | AML response (AML mice; IP 8 mg/kg/week for 3 weeks): complete remission of AML | CTX (AML mice; mouse, in vivo, ip, 8 mg/kg): severe CTX including dysfunction | mortality rate (WT and ROCK1^−/− mice; ROCK1 deficient mice, at 3 months): 55% | mortality rate (WT and ROCK1^−/− mice; ROCK1 deficient mice, at 6 months): 70% | mortality rate (WT and ROCK1^−/− mice; ROCK1−/− mice, over 6 weeks after initial DOX injection): about 10% | death of all treated mice (WT and ROCK1^−/− mice; WT mice): died within 3 months | mortality rate (WT and ROCK1^−/− mice; WT mice, over 6 weeks after initial DOX injection): about 70% | Bax levels (WT and ROCK1^−/− mice; mouse, in vivo): increased | autophagosomes by transmission electron microscopy (WT and ROCK1^−/− mice; mouse, in vivo): more accumulation of autophagosomes | body weight (WT and ROCK1^−/− mice; mouse, in vivo): significant impact | cardiac fibrosis (WT and ROCK1^−/− mice; mouse, in vivo): increased | cardiac function (WT and ROCK1^−/− mice; mouse, in vivo): preserved | cardiac function (percent fractional shortening) (WT and ROCK1^−/− mice; mouse, in vivo): impaired | cardiomyocyte size (WT and ROCK1^−/− mice; mouse, in vivo): significant impact | characteristics of DOX-induced CTX (TUNEL, Bax translocation, fibrosis) (WT and ROCK1^−/− mice; mouse, in vivo): effectively blocked | heart weight (WT and ROCK1^−/− mice; mouse, in vivo): significant impact | mitochondrial translocation of Bax (WT and ROCK1^−/− mice; mouse, in vivo): increased | number of TUNEL positive cardiac cells (WT and ROCK1^−/− mice; mouse, in vivo): significantly increased | DOX-induced LV dilation (WT and ROCK1^−/− mice; mouse, in vivo, 8 mg/kg): blocked | LV contractile function (LV fractional shortening, FS) (WT and ROCK1^−/− mice; mouse, in vivo, 8 mg/kg): reduced | left ventricular (LV) dilation (LVESD, LVEDD) by echocardiogram (WT and ROCK1^−/− mice; mouse, in vivo, 8 mg/kg): reproducible and progressive left ventricular (LV) dilation | cardiotoxic events (cardiac dysfunction, TUNEL positivity, cardiac fibrosis) ([3]; MHC-Cre/ROCK1fl/fl mice): significantly reduced | cardiotoxic events (cardiac dysfunction, TUNEL positivity, cardiac fibrosis) ([3]; ROCK1fl/fl hearts): induced cardiac dysfunction, increased TUNEL positivity and cardiac fibrosis

Cc1ccc(C(=O)Nc2ccc(CN3CCN(C)CC3)c(C(F)(F)F)c2)cc1C#Cc1cnc2cccnn12 [ponatinib]
cell survival ([4]; ROCK1−/− cells): enhanced survival | cleaved caspase 3/8 levels ([4]; ROCK1−/− cells): profound decrease | ponatinib induced cell shape changes ([4]; ROCK1−/− fibroblasts): not the case | cleaved caspase 8/3 levels ([4]; WT fibroblasts): profound increase | ponatinib induced cell shape changes ([4]; WT fibroblasts, increasing doses): significant changes

C[C@@H](N)[C@H]1CC[C@H](C(=O)Nc2ccncc2)CC1 [Y27632]
constitutive growth (thymidine incorporation) [5]: similarly repress the growth | constitutive growth (thymidine incorporation) (cells expressing BCR-ABL): similarly repress the growth

[N]=O [NO, nitric oxide]
ROCK activity (ROCK; patients with CVD, exogenous NO): inhibits ROCK activity

CC(C)c1c(C(=O)Nc2ccccc2)c(-c2ccccc2)c(-c2ccc(F)cc2)n1CC[C@@H](O)C[C@@H](O)CC(=O)O [atorvastatin]
ROCK activity (ROCK; patients with atherosclerosis): inhibits ROCK activity

O=S(=O)(c1cccc2cnccc12)N1CCCNCC1 [Fasudil]
constitutive growth (thymidine incorporation) [5]: similarly repress the growth | constitutive growth (thymidine incorporation) (cells expressing BCR-ABL): similarly repress the growth | survival of leukemic mice (leukemic mice; compared to vehicle treated): significant enhancement in survival | anti-leukemic activity (leukemic mice; in vivo models of AML): potent anti-leukemic activity
